Measured values: ChEMBL document CHEMBL1201862, “PubChem BioAssay data set” (2004)
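Cells were grown in 96-well plates and exposed to each compound for 48 hours at five concentrations; endpoints were interpolated linearly between bracketing concentrations, or set to the highest concentration if not reached. GI50 is the concentration that inhibits growth by half.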 Calls of active or inactive are those of the source. Rule as the data show it: active = GI50 up to about 1.1 µM and inactive = higher.

Experiments:
Experiment in all cases: growth of human tumour cells (NCI), 48 h
OVCAR-5 = test system: OVCAR-5
SF-539 = test system: SF-539
SK-MEL-5 = test system: SK-MEL-5
MOLT-4 = test system: MOLT-4
KM12 = test system: KM12
SK-MEL-2 = test system: SK-MEL-2
HT-29 = test system: HT-29
NCI-H226 = test system: NCI-H226
M14 = test system: M14
U-251 = test system: U-251
ACHN = test system: ACHN
MDA-MB-435 = test system: MDA-MB-435
SNB-75 = test system: SNB-75
NCI/ADR-RES = test system: NCI/ADR-RES
A549 = test system: A549
OVCAR-3 = test system: OVCAR-3
RXF 393 = test system: RXF 393
HCC 2998 = test system: HCC 2998
SW-620 = test system: SW-620
MDA-MB-231 = test system: MDA-MB-231

Measured: GI50

CN1CCN(CCCN2c3ccccc3Sc3ccc(C(F)(F)F)cc32)CC1
inactive: OVCAR-5 10.1 µM | SF-539 7.28 µM | SK-MEL-5 3.09 µM | MOLT-4 4.6 µM | KM12 5.14 µM | SK-MEL-2 7.93 µM | HT-29 2.44 µM | NCI-H226 15.5 µM | M14 1.88 µM | U-251 8.34 µM | ACHN 11.9 µM | MDA-MB-435 3.35 µM | SNB-75 7.24 µM | NCI/ADR-RES 11.6 µM | A549 12.6 µM

Cc1ccc(C)c(NC(=O)C(=O)CC(=O)c2cccc3ccccc23)c1
inactive: OVCAR-5 > 100 µM | SF-539 > 100 µM | SK-MEL-5 > 100 µM | MOLT-4 > 100 µM | KM12 > 100 µM | OVCAR-3 > 100 µM | SK-MEL-2 > 100 µM | RXF 393 > 100 µM | HT-29 > 100 µM | HCC 2998 > 100 µM | NCI-H226 > 100 µM | M14 > 100 µM | U-251 > 100 µM | ACHN > 100 µM | SNB-75 > 100 µM | A549 > 100 µM | SW-620 > 100 µM

CCOC(=O)NC(=O)c1cn(CCN2CCN(C(=O)CCCCCCCCCCNc3ncnc4[nH]cnc34)CC2)c(=O)[nH]c1=O
inactive: OVCAR-5 > 100 µM | SF-539 > 100 µM | SK-MEL-5 50.4 µM | MOLT-4 43.9 µM | KM12 > 100 µM | OVCAR-3 > 100 µM | SK-MEL-2 > 100 µM | RXF 393 > 100 µM | HT-29 > 100 µM | HCC 2998 > 100 µM | NCI-H226 > 100 µM | M14 > 100 µM | U-251 > 100 µM | ACHN 37.8 µM | SNB-75 > 100 µM | A549 > 100 µM | SW-620 > 100 µM

COc1ccc(C(=O)OC2C=COC(C)C2OC(=O)c2ccc(OC)cc2)cc1 (stereo not drawn)
inactive: OVCAR-5 77.1 µM | SF-539 18 µM | SK-MEL-5 16.7 µM | MOLT-4 16.3 µM | KM12 19.1 µM | OVCAR-3 16.6 µM | SK-MEL-2 17.5 µM | RXF 393 14.6 µM | HT-29 22.2 µM | HCC 2998 > 58.1 µM | NCI-H226 38.8 µM | M14 16.6 µM | U-251 36.8 µM | ACHN 42.4 µM | SNB-75 12.4 µM | A549 48.1 µM | SW-620 15.6 µM

COc1ccc(/C=C/C(=O)C(C)(C)CN2CCCCC2)cc1
inactive: OVCAR-5 33.7 µM | SF-539 19.8 µM | SK-MEL-5 19 µM | MOLT-4 21.8 µM | KM12 22.1 µM | OVCAR-3 18.2 µM | SK-MEL-2 16.3 µM | RXF 393 21.3 µM | HT-29 16.6 µM | HCC 2998 18.3 µM | NCI-H226 20.9 µM | M14 18.2 µM | U-251 15.4 µM | ACHN 24.4 µM | SNB-75 12.4 µM | A549 26.8 µM | SW-620 1.13 µM

CC1=CCC[C@@]2(C)C(CC[C@@H]2C(C)/C=C/C(C)C)c2ccc(cc2C(=O)O)C[C@@H](O)CC1 (stereo partly drawn)
inactive: OVCAR-5 16.4 µM | SF-539 8.55 µM | SK-MEL-5 3.59 µM | MOLT-4 11.6 µM | KM12 11 µM | OVCAR-3 13.7 µM | SK-MEL-2 17.1 µM | RXF 393 15.9 µM | HT-29 5.13 µM | HCC 2998 9.93 µM | NCI-H226 18.5 µM | M14 16.9 µM | U-251 3.94 µM | ACHN 6.37 µM | SNB-75 13.8 µM | A549 6.14 µM | SW-620 14.9 µM

O=C(O)CC/C(=N\Nc1nsc2ccccc12)c1ccc(Cl)cc1
inactive: OVCAR-5 54.5 µM | SF-539 31.5 µM | SK-MEL-5 22.2 µM | MOLT-4 21.9 µM | MDA-MB-231 35.6 µM | KM12 22.9 µM | OVCAR-3 18.3 µM | SK-MEL-2 36.5 µM | RXF 393 23.5 µM | HT-29 29.8 µM | HCC 2998 17.5 µM | NCI-H226 > 100 µM | M14 25.1 µM | U-251 18 µM | ACHN 28.2 µM | MDA-MB-435 27.5 µM | SNB-75 28.5 µM | A549 > 49.1 µM | SW-620 28.6 µM

COc1cccc(C(NC2=NCCC=N2)c2cc3c(cc2O)OCO3)c1O (stereo not drawn)
inactive: OVCAR-5 36.6 µM | SF-539 25.8 µM | SK-MEL-5 38.8 µM | MOLT-4 23.6 µM | MDA-MB-231 23.6 µM | KM12 32.8 µM | OVCAR-3 22 µM | SK-MEL-2 24.4 µM | RXF 393 23.8 µM | HT-29 38.5 µM | HCC 2998 19.9 µM | NCI-H226 43.5 µM | M14 27.4 µM | U-251 17.7 µM | ACHN 48 µM | MDA-MB-435 29 µM | SNB-75 23.3 µM | A549 41.1 µM | SW-620 20.4 µM
